US4686230A, “Picoline derivative useful as gastric acid secretion inhibitors” (Byk Gulden Lomberg Chemische Fabrik GmbH, priority 1984, dated 1987)

Experiments:
[1] = system: gastric secretion (HCl); test: Inhibition of the HCl secretion of the stomach, Shay rats; format: in vivo, rat; settings: total 4 h; for ED25 / ED50: Rattus norvegicus, po, orally; for ED25: dose which reduces HCl secretion by 25% vs control; for ED50: dose which reduces HCl secretion by 50% vs control; for % inhibition of the HCl secretion: after administration of the antiulcer ED50
Description: (§1) The investigated compounds according to the invention have been given numbers as follows:
(§2) The effects of the investigated compounds on the formation of stomach lesions induced by pylorus ligature and oral administration of 100 mg/kg of acetylsalicylic acid and the gastric secretion (HCl) for 4 h in rats (so-called Shay rats) are shown in the table which follows.
(§3) + ED25 and ED50 = dose which reduces the lesion index and the HCl
(§4) secretion (Σ4 h) of the rat stomach in the treated group by 25 and
(§5) 50% respectively, as compared with the control group.
++ after administration of the antiulcer ED50
(§6) The ulcers are provoked in rats (female, 180-200 g, 4 animals in each cage on a high grid) kept fasting for 24 hours by pylorus ligature (under diethyl ether anaesthesia) and oral administration of 100 mg/10 ml/kg of acetylsalicylic acid. The substances to be tested are administered orally (10 ml/kg) one hour before the pylorus ligature. The wounds are closed by means of Michel clamps. 4 hours later, the animals are killed under ether intoxication by atlas dislocation and the stomach is resected. The stomach is opened longitudinally and fixed on a cork plate, after first determining the quantity of the secreted gastric juice (volume) and later its HCl content (titration with sodium hydroxide solution); the number and size (=diameter) of existing ulcers was determined by means of a stereomicroscope at 10-fold magnification. The product of the degree of severity (according to the points rating below) and of the number of ulcers is used as the individual lesion index.
(§7) The reduction in the mean lesion index of each treated group as compared with that of the control group (=100%) is taken as the measure of the anti-ulcerogenic effect.

[2] = system: stomach lesions induced by pylorus ligature and oral administration of 100 mg/kg of acetylsalicylic acid; test: Protective action on the stomach (anti-ulcerogenic action), Shay rats: pylorus ligature + acetylsalicylic acid; format: in vivo; settings: Rattus norvegicus, 1 h, orally, dose which reduces the mean lesion index by 50% vs control, given one hour before pylorus ligature, read-out: Protective action on the stomach (rats), inhibition of the lesion index, ED50
Description: as §1, §2, §3, §4, §5
The anti-ulcerogenic action was tested by the method of so-called Shay rats:
as §6, with “index. […]” for “index.”
as §7

SMILES | ED25 [1] [mg/kg] | ED50 [1] [mg/kg] | % inhibition of the HCl secretion [1] | ED50 [2] [mg/kg]
COc1ccnc(C[S+]([O-])c2nc3c(C)c(OC(F)F)c(C)cc3[nH]2)c1C (stereo not shown) [Serial No. 1, 5-Difluoromethoxy-2-[(4-methoxy-3-methyl-2-pyridyl)methylsulphinyl]-4,6-dimethyl-1H-benzimidazole] | 0.5 | 1.1 | 22% | 0.5
COc1ccnc(C(C)[S+]([O-])c2nc3cc(OC(F)F)c(OC)cc3[nH]2)c1 (stereo not shown) [Serial No. 2, 5-Difluoromethoxy-6-methoxy-2-{[1-(4-methoxy-2-pyridyl)ethyl]sulphinyl}-1H-benzimidazole] | ~1 | ~2 | ~ 20% | 0.6
COc1ccnc(C(C)[S+]([O-])c2nc3cc(OC(F)(F)C(F)F)ccc3[nH]2)c1 (stereo not shown) [Serial No. 3, 5-(1,1,2,2-Tetrafluoroethoxy)-2-{[1-(4-methoxy-2-pyridyl)ethyl]sulphinyl}-1H-benzimidazole] | 0.35 | 0.8 | 35% | 0.5
COc1ccnc(C[S+]([O-])c2nc3c(C)c(OC(F)F)c(C)cc3[nH]2)c1OC (stereo not shown) [Serial No. 4, 5-Difluoromethoxy-2-[(3,4-dimethoxy-2-pyridyl)-methylsulphinyl]-4,6-dimethyl-1H-benzimidazole] | ~1.3 | ~2 | 10% | ~1
COc1ccnc(C[S+]([O-])c2nc3cc(OC(F)(F)C(F)Cl)ccc3[nH]2)c1 (stereo not shown) [Serial No. 6, 5-(2-Chloro-1,1,2-trifluoroethoxy)-2-[(4-methoxy-2-pyridyl)methylsulphinyl]-1H-benzimidazole] | 0.55 | 1.3 | 25% | 0.55
COc1ccnc(C(C)[S+]([O-])c2nc3cc(OC(F)(F)C(F)Cl)ccc3[nH]2)c1 (stereo not shown) [Serial No. 7] | 0.4 | 0.8 | 40% | 0.6
COc1ccnc(CSc2nc3c(C)c(OC(F)F)c(C)cc3[nH]2)c1C [Serial No. 8, 5-Difluoromethoxy-2-[(4-methoxy-3-methyl-2-pyridyl)methylthio]-4,6-dimethyl-1H-benzimidazole] | 1 | 1 | 15% | 0.7
COc1ccnc(C(C)Sc2nc3cc(OC(F)F)c(OC)cc3[nH]2)c1 (stereo not shown) [Serial No. 9, 5-Difluoromethoxy-6-methoxy-2-{[1-(4-methoxy-2-pyridyl)ethyl]thio}-1H-benzimidazole] | < 1 | ~4 | 35% | 1.7
COc1ccnc(C(C)[S+]([O-])c2nc3cc4c(cc3[nH]2)OC(F)(F)O4)c1 (stereo not shown) [compound 5] | 1 | 1.7 | 25% | 1
COc1ccnc(C[S+]([O-])c2nc3cc(OC(F)(F)C(F)Cl)ccc3[nH]2)c1C (stereo not shown) [compound 10] | 0.4 | 0.8 | 27% | 0.4
